The text below walks through data of patent publication US8119624B2, “Fused phenyl amido heterocyclic compounds” (Pfizer Inc., priority 2006, dated 2012).

The target of this experiment is T1, Full-length glucokinase (beta cell isoform) (Homo sapiens, UniProt P35557).
T1 construct: Full-length glucokinase (beta cell isoform) was His-tagged at N-terminus; His tag (N); made in house
T1 sequence (P35557 1-465): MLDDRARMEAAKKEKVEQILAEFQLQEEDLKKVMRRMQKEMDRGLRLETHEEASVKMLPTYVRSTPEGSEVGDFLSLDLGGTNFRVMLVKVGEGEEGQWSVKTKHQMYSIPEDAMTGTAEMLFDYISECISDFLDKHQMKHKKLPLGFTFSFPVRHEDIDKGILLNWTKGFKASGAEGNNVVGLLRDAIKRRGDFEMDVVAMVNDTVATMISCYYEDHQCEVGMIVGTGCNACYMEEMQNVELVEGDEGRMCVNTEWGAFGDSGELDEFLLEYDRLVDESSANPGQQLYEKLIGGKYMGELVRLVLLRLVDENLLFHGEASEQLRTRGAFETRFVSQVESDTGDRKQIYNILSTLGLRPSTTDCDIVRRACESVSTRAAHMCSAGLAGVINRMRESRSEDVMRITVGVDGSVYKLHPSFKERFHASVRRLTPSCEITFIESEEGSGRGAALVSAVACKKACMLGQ
The experiment can be described thus: Glucokinase biochemical assay (PK/LDH-coupled, NADH depletion at 340 nm): % activation, EC50, % max activation. The conditions noted are these: 5 mM glucose; for activation at 10 µM: 10 uM compound, % Activation=(Va/Vo−1)×100, read-out: % Activation at 10 uM; for EC50: GK activation, read-out: EC50; for Emax: fitted maximum activation, read-out: % Max Activation. An outline of the steps: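 Activation expressed as (Va/Vo−1)×100, where initial rates with and without compound come from NADH depletion at 340 nm over 200–900 s. Enzyme is His-tagged human beta-cell GK, full length, run at room temperature in HEPES buffer with 1 mM ATP and 5 mM glucose. DMSO 1%.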

Take `Cn1ncc(NC(=O)c2cc(Oc3ccc(S(C)(=O)=O)cc3)c3cc(C(=O)N4CCC4)oc3c2)n1` [Example 292, 2-(Azetidin-1-ylcarbonyl)-4-[4-(methylsulfonyl)phenoxy]-N-(2-methyl-2H-1,2,3-triazol-4-yl)-1-benzofuran-6-carboxamide]: the activation at 10 µM stood at 16.7%.
What is called EC50 is the concentration needed to bring the measured effect to its halfway point. As for `COc1ccnc(NC(=O)c2cc(Oc3ccc(S(=O)(=O)N(C)C)c(F)c3)c3cc(C)oc3c2)c1` [Example 293, 4-{4-[(Dimethylamino)sulfonyl]-3-fluorophenoxy}-N-(4-methoxypyridin-2-yl)-2-methyl-1-benzofuran-6-carboxamide], the activation at 10 µM was determined as 46.9%, the concentration for a half-maximal effect (EC50) stood at 590 nM and the Emax was determined as 50%.
For `Cc1cc2c(Oc3ccc(S(=O)(=O)N4CCC4)cc3)cc(C(=O)Nc3ccn(C)n3)cc2o1` [Example 294, 4-(4-(Azetidin-1-ylsulfonyl)phenoxy)-2-methyl-N-(1-methyl-1H-pyrazol-3-yl)benzofuran-6-carboxamide], the activation at 10 µM was 122%, the EC50 was found to be 200 nM and the Emax was found to be 132%.
As to `COc1ccnc(NC(=O)c2cc(Oc3ccc(S(=O)(=O)N4CCC4)cc3)c3cc(C)oc3c2)c1` [Example 295, 4-(4-(Azetidin-1-ylsulfonyl)phenoxy)-N-(4-methoxypyridin-2-yl)-2-methyl-benzofuran-6-carboxamide], the activation at 10 µM came to 46.9%, the concentration giving a half-maximal response (EC50) worked out at 360 nM and the Emax was 50%.
For the compound `Cc1cc2c(Oc3ccc(S(=O)(=O)N4CCC4)cc3)cc(C(=O)Nc3ccccn3)cc2o1` [Example 296, 4-(4-(Azetidin-1-ylsulfonyl)phenoxy)-2-methyl-N-(pyridin-2-yl)benzofuran-6-carboxamide], the activation at 10 µM worked out at 70%, the half-maximal effective concentration (EC50) was determined as 200 nM and the Emax was 77%.
`Cc1ccc(NC(=O)c2cc(Oc3ccc(S(=O)(=O)N4CCC4)cc3)c3cc(C)oc3c2)nc1` [Example 297, 4-(4-(Azetidin-1-ylsulfonyl)phenoxy)-2-methyl-N-(5-methylpyridin-2-yl)-benzofuran-6-carboxamide]: the activation at 10 µM turned out to be 61.9%, the 50% effective concentration (EC50) worked out at 130 nM and the Emax came out at 68%.
The corresponding values for `Cc1cc2c(Oc3ccc(S(=O)(=O)N4CCC4)cc3)cc(C(=O)Nc3cnn(C)n3)cc2o1` [Example 298, 4-(4-(Azetidin-1-ylsulfonyl)phenoxy)-2-methyl-N-(2-methyl-2H-1,2,3-triazol-4-yl)benzofuran-6-carboxamide] are 113%, 210 nM and 132%.
For `Cc1cc2c(Oc3ccc(S(=O)(=O)N4CCC4)cc3)cc(C(=O)Nc3cnc(N(C)C)cn3)cc2o1` [Example 299, 4-(4-(Azetidin-1-ylsulfonyl)phenoxy)-N-(5-(dimethylamino)-pyrazin-2-yl)-2-methylbenzofuran-6-carboxamide], the activation at 10 µM is 106%, the EC50 was determined as 180 nM and the Emax is 107%.
As to `Cc1cc2c(Oc3ccc(S(=O)(=O)N4CCC4)cc3)cc(C(=O)Nc3ccc(Cl)cn3)cc2o1` [Example 300, 4-(4-(Azetidin-1-ylsulfonyl)phenoxy)-N-(5-chloropyridin-2-yl)-2-methyl-benzofuran-6-carboxamide], the activation at 10 µM came out at 53.4%, the EC50 was determined as 710 nM and the Emax stood at 56%.
The corresponding values for `Cc1cc2c(Oc3ccc(S(=O)(=O)N4CCC4)cc3)cc(C(=O)Nc3ccc(CO)cn3)cc2o1` [Example 301, 4-(4-(Azetidin-1-ylsulfonyl)phenoxy)-N-(5-(hydroxymethyl)-pyridin-2-yl)-2-methylbenzofuran-6-carboxamide] are 168%, 150 nM and 137%.
